In patent US12076320B2, “Diarylpyrazole compound, composition comprising same, and use thereof” (Shenzhen TargetRx, Inc., priority 2018, dated 2024):

Legend:
[1] = Metabolic stability evaluation in rat liver microsomes; assay type: in vitro ADME, SD rat; conditions: rat liver microsomes 0.5 mg/mL, compound 1 μM; for microsomal CLint at 1 μM / half-life at 1 μM: SD, pH 7.4; for microsomal CLint at 1 μM: read-out: RLM CL; for half-life at 1 μM: read-out: RLM T1/2
Procedure: (§1) Microsome assay: human liver microsomes (HLM): 0.5 mg/mL, Xenotech; rat liver microsomes (RLM): 0.5 mg/mL, Xenotech; coenzyme (NADPH/NADH): 1 mM, Sigma Life Science; magnesium chloride: 5 mM, 100 mM phosphate buffer (pH 7.4).
(§2) Preparation of stock solutions: Powders of the example compounds and the control compound were accurately weighed and dissolved in DMSO to 5 mM respectively.
(§3) Preparation of phosphate buffer (100 mM, pH 7.4): A pre-prepared 0.5 M potassium dihydrogen phosphate solution (150 mL) was mixed with a pre-prepared 0.5 M dibasic potassium phosphate solution (700 mL). The pH of the mixture was adjusted to 7.4 with a 0.5 M dibasic potassium phosphate solution. The mixture was diluted 5-fold with ultrapure water before use, and magnesium chloride was added to obtain a phosphate buffer (100 mM) containing 100 mM potassium phosphate, 3.3 mM magnesium chloride, pH 7.4.
(§4) A NADPH regeneration system solution (containing 6.5 mM NADP, 16.5 mM G-6-P, 3 U/mL G-6-P D, 3.3 mM magnesium chloride) was prepared and placed on wet ice before use.
(§5) Preparation of stop solution: an acetonitrile solution containing 50 ng/mL propranolol hydrochloride and 200 ng/mL tolbutamide (internal standard). 25057.5 μL of phosphate buffer (pH 7.4) was added into a 50 mL centrifuge tube, to which 812.5 μL of human liver microsomes were then added and mixed well to obtain a liver microsome dilution with a protein concentration of 0.625 mg/mL. 25057.5 μL of phosphate buffer (pH 7.4) was added into a 50 mL centrifuge tube, to which 812.5 μL of SD rat liver microsomes were then added and mixed well to obtain a liver microsome dilution with a protein concentration of 0.625 mg/mL.
(§6) Incubation of the samples: The stock solutions of the respective compounds were respectively diluted to 0.25 mM with an aqueous solution containing 70% acetonitrile, and used as a working solution, ready for use. 398 μL of the dilutions of human liver microsomes or rat liver microsomes were added to 96-well incubation plates (N=2), respectively, and 2 μL of 0.25 mM working solution was added respectively and nixed.
(§7) Metabolic stability assay: 300 μL of pre-chilled stop solution was added to each well of 96-well deep well plates and placed on ice as stop plates. The 96-well incubation plates and NADPH regeneration system were placed in a 37° C. water bath, shaken at 100 rpm and pre-incubated for 5 min. 80 μL of incubation solution was taken out from each well of the incubation plates, added to the stop plates, mixed well, and replenished with 20 μL of NADPH regeneration system solution. The resulting mixture was used as a 0-min sample. 80 μL of NADPH regeneration system solution was added to each well of the incubation plates to start the reaction and start counting. […] At 10, 30, and 90 minutes of the reaction, respectively, 100 μL of the reaction solutions were taken out, added to the stop plates, and vortexed for 3 minutes to stop the reaction. The stop plates were centrifuged at 5000×g at 4° C. for 10 min. 100 μL of the supernatant was taken out, added to a 96-well plate pre-added with 100 μL of distilled water, mixed well, and analyzed by LC-MS/MS.
(§8) Data analysis: The peak areas of the corresponding compounds and internal standard were detected by LC-MS/MS system, and the ratio of the peak area of the compounds to the internal standard was calculated.

[2] = Metabolic stability evaluation in human liver microsomes; assay type: in vitro ADME; conditions: human liver microsomes 0.5 mg/mL, compound 1 μM; for microsomal CLint at 1 μM / half-life at 1 μM: pH 7.4; for microsomal CLint at 1 μM: read-out: HLM CL; for half-life at 1 μM: read-out: HLM T1/2
Procedure: as §1, §2, §3, §4, §5, §6, §7, §8

[3] = at weakly acidic and neutral pH; cited from earlier work
[4] = test system: HT-29 colorectal cancer cell line with BRAF V600E mutation; experiment: Cytotoxicity assay (CTG, 72 hours); assay type: cell-based; conditions: Homo sapiens, HT-29 cells
Procedure: The cell viability was detected by trypan blue exclusion method to ensure that the cell viability was greater than 90%. The cells were inoculated in a 96-well plate and cultured overnight under the condition of 37° C. and 5% CO2. The 10-fold drug solutions were prepared by a 3.16-fold serial dilution starting from a maximum concentration of 1 μM, resulting in 9 concentrations. 10 μL of the drug solutions were added to each well of the 96-well plate in triplicate, and the incubation was further continued for 72 hours. An equal volume of CTG solution was added to each well, and the cell plate w as shaked on an orbital shaker for 5 minutes to lyse the cells. The cell plate was placed at room temperature for 20 minutes to stabilize the luminescence signal, and the luminescence values were then read on a SpectraMax multi-label microplate reader (MD, 2104-0010A). The data were analyzed with GraphPad Prism 5.0 software, and fitted using the non-linear S-curve regression to obtain a dose-effect curve, from which IC50 values were calculated accordingly.

Compound	microsomal CLint at 1 μM [1] [µL/min/mg]	half-life at 1 μM [1] [h]	microsomal CLint at 1 μM [2] [µL/min/mg]	half-life at 1 μM [2] [h]	RLM CL [1] [µL/min/mg]	RLM T1/2 [1] [h]	HLM CL [2] [µL/min/mg]	HLM T1/2 [2] [h]	water-solubility [3]	IC50 [4] [nM]
[2H]C([2H])([2H])OC(=O)N[C@@H](C)CNc1nccc(-c2cn(C([2H])(C([2H])([2H])[2H])C([2H])([2H])[2H])nc2-c2cc(Cl)cc(NS(C)(=O)=O)c2F)n1 (single isomer, unassigned) [L-3]	11.3	2.04	4.87	4.75						
[2H]C([2H])([2H])OC(=O)N[C@@H](C)CNc1nccc(-c2cn(C(C)C)nc2-c2cc(Cl)cc(NS(C)(=O)=O)c2F)n1 (single isomer, unassigned) [L-2]	16.8	1.38	9.07	2.55						
[2H]C([2H])([2H])C([2H])(n1cc(-c2ccnc(NC[C@H](C)NC(=O)OC)n2)c(-c2cc(Cl)cc(NS(C)(=O)=O)c2F)n1)C([2H])([2H])[2H] (single isomer, unassigned) [L-1]	11.8	1.95	9.47	2.44						
[2H]C([2H])([2H])[C@H](NC(=O)OC)C([2H])([2H])Nc1nccc(-c2cn(C(C)C)nc2-c2cc(Cl)cc(NS(C)(=O)=O)c2F)n1 (single isomer, unassigned) [L-4-S]	16.7	1.38	12.5	1.85						
[2H]C([2H])([2H])[C@H](NC(=O)OC)C([2H])([2H])Nc1nccc(-c2cn(C([2H])(C([2H])([2H])[2H])C([2H])([2H])[2H])nc2-c2cc(Cl)cc(NS(C)(=O)=O)c2F)n1 [L-5-S, (S)-methyl (1-((4-(3-(5-chloro-2-fluoro-3-(methylsulfonamido)phenyl)-1-(propan-2-yl-d7)-3-1H-pyrazol-4-yl)pyrimidin-2-yl)amino)propan-2-yl-1,1,3,3,3-d5)carbamate]					10.22	2.2595	5.69	4.0628		
COC(=O)N[C@@H](C)CNc1nccc(-c2cn(C(C)C)nc2-c2cc(Cl)cc(NS(C)(=O)=O)c2F)n1 [Encorafenib, (S)-methyl (1-((4-(3-(5-chloro-2-fluoro-3-(methylsulfonamido)phenyl)-1-isopropyl-1H-pyrazol-4-yl)pyrimidin-2-yl)amino)propan-2-yl)carbamate, reference compound]	17.4	1.33	17.3	1.33					poor	8.96
